Laboratory results as given in patent publication US20230399341A1, “7-PHENYL SUBSTITUTED 2-AMINOQUINAZOLINE INHIBITORS OF HPK1” (MERCK SHARP & DOHME LLC, priority 2020, published 2023).

Biological target: T1, Human HPK1, catalytic domain (Homo sapiens, UniProt Q92918)
T1 sequence (Q92918 1-346): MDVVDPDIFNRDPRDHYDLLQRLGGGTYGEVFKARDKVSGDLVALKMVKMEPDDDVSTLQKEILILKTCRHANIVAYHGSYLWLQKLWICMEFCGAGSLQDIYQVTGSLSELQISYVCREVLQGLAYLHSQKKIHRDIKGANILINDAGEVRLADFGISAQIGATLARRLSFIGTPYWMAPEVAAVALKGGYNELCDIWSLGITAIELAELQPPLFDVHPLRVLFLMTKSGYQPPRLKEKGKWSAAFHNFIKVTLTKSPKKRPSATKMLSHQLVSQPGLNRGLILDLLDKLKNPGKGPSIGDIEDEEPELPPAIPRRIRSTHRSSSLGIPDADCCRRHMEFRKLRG
Assay: HPK1-SLP76 TR-FRET Assay
Type: biochemical
Conditions: 75 pM HPK1, ATP 10 uM, SLP76 10 nM, 30 min pre-incubation, 60 min reaction

SMILES | IC50 [nM]
Cc1c(-c2cc3nc(Nc4ccc5c(c4)CN(C)CC5)ncc3cc2F)cnc2c1NCCO2 [Compound 1-114, 6-fluoro-7-(8-methyl-2,3-dihydro-1H-pyrido[2,3-b][1,4]oxazin-7-yl)-N-(2-methyl-1,2,3,4-tetrahydroisoquinolin-7-yl)quinazolin-2-amine] | 0.0883
COc1cc2c(cc1Nc1ncc3ccc(-c4cccc(CNC(C)=O)c4)cc3n1)CN(C)CC2 [Compound 1-98, N-[(3-{2-[(6-methoxy-2-methyl-1,2,3,4-tetrahydroisoquinolin-7-yl)amino]quinazolin-7-yl}phenyl)methyl]acetamide] | 203
COc1cc2c(cc1Nc1ncc3ccc(-c4cncc(N)c4C)cc3n1)CN(C)CC2 [Compound 1-3, 7-(5-amino-4-methylpyridin-3-yl)-N-(6-methoxy-2-methyl-1,2,3,4-tetrahydroisoquinolin-7-yl)quinazolin-2-amine] | 1.52
COc1cc2c(cc1Nc1ncc3ccc(-c4cccc(C5CCC(=O)N5)c4)cc3n1)CN(C)CC2 (racemic) [Compound 1-99, (R and S)-5-(3-{2-[(6-methoxy-2-methyl-1,2,3,4-tetrahydroisoquinolin-7-yl)amino]quinazolin-7-yl}phenyl)pyrrolidin-2-one] | 120
COc1cc2c(cc1Nc1ncc3ccc(-c4cnc(C(C)(C)O)s4)cc3n1)CN(C)CC2 [Compound 1-15, 2-(5-{2-[(6-methoxy-2-methyl-1,2,3,4-tetrahydroisoquinolin-7-yl)amino]quinazolin-7-yl}-1,3-thiazol-2-yl)propan-2-ol] | 42.7
CNC(=O)C1(c2ccc(Nc3ncc4cc(F)c(-c5cnc6c(c5C)NCCO6)cc4n3)cc2)CCC1 [Compound 1-121, 1-(4-{[6-fluoro-7-(8-methyl-2,3-dihydro-1H-pyrido[2,3-b][1,4]oxazin-7-yl)quinazolin-2-yl]amino}phenyl)-N-methylcyclobutane-1-carboxamide] | 0.256
COc1cc2c(cc1Nc1ncc3cc(C#N)c(-c4cnc5c(c4C)NCCO5)cc3n1)CN(C)CC2 [Compound 1-97, 2-[(6-methoxy-2-methyl-1-1,2,3,4-tetrahydroisoquinolin-7-yl)amino]-7-(8-methyl-2,3-dihydro-1H-pyrido[2,3-b][1,4]oxazin-7-yl)quinazoline-6-carbonitrile] | 53.8
COc1cc2c(cc1Nc1ncc3ccc(-c4ccn5ncnc5c4)cc3n1)CN(C)CC2 [Compound 1-16, N-(6-methoxy-2-methyl-1,2,3,4-tetrahydroisoquinolin-7-yl)-7-([1,2,4]triazolo[1,5-a]pyridin-7-yl)quinazolin-2-amine] | 154
COc1cc2c(cc1Nc1ncc3ccc(-c4cc(NC(C)=O)ccc4C)cc3n1)CNCC2 [Compound 1-85, N-(3-{2-[(6-methoxy-1,2,3,4-tetrahydroisoquinolin-7-yl)amino]quinazolin-7-yl}-4-methylphenyl)acetamide] | 462

The remaining lines, values ahead:

IC50 [nM] | SMILES
1.32 | Cc1c(-c2c(F)c(N)c3cnc(Nc4ccc(CS(C)(=O)=O)cc4)nc3c2Cl)cnc2c1NCCO2 [Compound 2-91, (+ or −)-8-chloro-6-fluoro-7-(8-methyl-2,3-dihydro-1H-pyrido[2,3-b][1,4]oxazin-7-yl)-N~2~- {4-[(methylsulfonyl)methyl]phenyl}quinazoline-2,5-diamine]
0.454 | CCS(=O)(=O)Cc1ccc(Nc2ncc3c(N)c(F)c(-c4cnc5c(c4C)NCC(C)O5)cc3n2)c(F)c1 (single isomer, unassigned) [Compound 2-129, (R or S)-7-(3,8-dimethyl-2,3-dihydro-1H-pyrido[2,3-b][1,4]oxazin-7-yl)-N2-(4-((ethylsulfonyl)methyl)-2-fluorophenyl)-6-fluoroquinazoline-2,5-diamine]
0.0784 | COc1cc(C2CCN(C)C2=O)ccc1Nc1ncc2c(N)c(F)c(-c3cnc4c(c3C)NCCO4)cc2n1 (single isomer, unassigned) [Compound 2-54, (R or S)-3-(4-{[5-amino-6-fluoro-7-(8-methyl-2,3-dihydro-1H-pyrido[2,3-b][1,4]oxazin-7-yl)quinazolin-2-yl]amino}-3-methoxyphenyl)-1-methylpyrrolidin-2-one]
46.8 | COc1cc2c(cc1Nc1ncc3ccc(NCc4ccc5c(c4)S(=O)(=O)N=C(C)N5)cc3n1)CN(C)CC2 [Compound 3-25, 7-[({2-[(6-methoxy-2-methyl-1,2,3,4-tetrahydroisoquinolin-7-yl)amino]quinazolin-7-yl}-amino)methyl]-3-methyl-1lambda~6~,2,4-benzothia-diazine-1,1(4H)-dione]
365 | COc1cc2c(cc1Nc1ncc3ccc(NCC4CC(=O)N(C)C4)cc3n1)CN(C)CC2 (racemic) [Compound 3-59, (S and R)-4-[({2-[(6-methoxy-2-methyl-1,2,3,4-tetrahydroiso-quinolin-7-yl)amino]quinazolin-7-yl}amino)methyl]-1-methyl-pyrrolidin-2-one]
0.0812 | CNC(=O)C(C)(C)c1ccc(Nc2ncc3c(N)c(F)c(-c4cnc5c(c4C)NCCO5)cc3n2)cc1 [Compound 2-187, 2-(4-{[5-amino-6-fluoro-7-(8-methyl-2,3-dihydro-1H-pyrido[2,3-b][1,4]oxazin-7-yl)quinazolin-2-yl]amino}phenyl)-N,2-dimethylpropanamide]
18.4 | COc1cc2c(cc1Nc1ncc3ccc(Nc4cccc(S(C)(=O)=O)c4)cc3n1)CN(C)CC2 [Compound 3-33, N~2~-(6-methoxy-2-methyl-1,2,3,4-tetrahydroisoquinolin-7-yl)-N~7~-[3-(methylsulfon-yl)phenyl]quinazoline-2,7-diamine]
10 | COc1cc2c(cc1Nc1ncc3ccc(Nc4cc(C(N)=O)ccn4)cc3n1)CN(C)CC2 [Compound 3-41, 2-({2-[(6-methoxy-2-methyl-1,2,3,4-tetrahydroisoquinolin-7-yl)amino]quinazolin-7-yl}-amino)pyridine-4-carboxamide]
3.17 | COc1cc2c(cc1Nc1ncc3ccc(Nc4cc(S(C)(=O)=O)c(C)cc4C)cc3n1)CN(C)CC2 [Compound 3-42, N~7~-[2,4-dimethyl-5-(methyl-sulfonyl)phenyl]-N~2~-(6-methoxy-2-methyl-1,2,3,4-tetra-hydroisoquinolin-7-yl)quinaz-oline-2,7-diamine]
29.4 | COc1cc2c(cc1Nc1ncc3ccc(Nc4cccc(CO)c4)cc3n1)CN(C)CC2 [Compound 3-31, [3-({2-[(6-methoxy-2-methyl-1,2,3,4-tetrahydroisoquinolin-7-yl)amino]quinazolin-7-yl}-amino)phenyl]methanol]
0.0851 | Cc1c(-c2cc3nc(Nc4ccc(S(C)(=O)=O)cc4)ncc3c(N)c2F)cnc2c1NCCO2 [Compound 2-17, 6-fluoro-7-(8-methyl-2,3-dihydro-1H-pyrido[2,3-b][1,4]oxazin-7-yl)-N~2~- [4-(methylsulfonyl)phenyl] quinazoline-2,5-diamine]
0.687 | Cc1c(-c2cc3nc(Nc4ccccc4F)ncc3c(N)c2F)cnc2c1NCCO2 [Compound 2-22, 6-fluoro-N~2~-(2-fluorophenyl)-7-(8-methyl-2,3-dihydro-1H-pyrido[2,3-b][1,4]oxazin-7-yl)quinazoline-2,5-diamine]
0.0198 | Cc1c(-c2cc3nc(Nc4ccc5c(c4)CN(C)C5=O)ncc3c(N)c2F)cnc2c1NCCO2 [Compound 2-78, 5-{[5-amino-6-fluoro-7-(8-methyl-2,3-dihydro-1H-pyrido[2,3-b][1,4]oxazin-7-yl)quinazolin-2-yl]amino}-2-methyl-2,3-dihydro-1H-isoindol-1-one]
0.0647 | Cc1c(-c2cc3nc(Nc4ccc(CS(C)(=O)=O)cc4F)ncc3c(N)c2F)cnc2c1NCCO2 [Compound 2-155, 6-fluoro-N~2~-{2-fluoro-4-[(methylsulfonyl)methyl]phenyl}-7-(8-methyl-2,3-dihydro-1H-pyrido[2,3-b][1,4]oxazin-7-yl)quinazoline-2,5-diamine]
0.782 | COc1ccc(Nc2ncc3c(N)c(F)c(-c4cnc5c(c4C)NCCO5)cc3n2)c(C)n1 [Compound 2-77, 6-fluoro-N~2~-(6-methoxy-2-methylpyridin-3-yl)-7-(8-methyl-2,3-dihydro-1H-pyrido[2,3-b][1,4]oxazin-7-yl)quinazoline-2,5-diamine]
0.169 | C[C@H]1COC(=O)N1c1cc(N)c2cnc(Nc3ccc(CS(C)(=O)=O)cc3)nc2c1 [Compound 3-78, (S)-3-(5-amino-2-((4-((methyl-sulfonyl)methyl)phenyl)amino)-quinazolin-7-yl)-4-methyloxa-zolidin-2-one]
807 | COc1cc2c(cc1Nc1ncc3ccc(N4CC5CCS(=O)(=O)C5C4)cc3n1)CN(C)CC2 (racemic) [Compound 3-60, (±)-5-{2~-[(6-methoxy-2-meth-yl-1,2,3,4-tetrahydroisoquinolin-7-yl)amino]quinazolin-7-yl}-hexahydro-1lambda~6~-thieno-[2,3-c]pyrrole-1,1(2H)-dione]
0.0508 | Cc1c(-c2cc3nc(Nc4ccc5c(c4)CN(C)CC5)ncc3c(N)c2F)cnc2c1NCCO2 [Compound 2-70, 6-fluoro-7-(8-methyl-2,3-dihydro-1H-pyrido[2,3-b][1,4]oxazin-7-yl)-N˜2˜-(2-methyl-1,2,3,4-tetrahydroisoquinolin-7-yl)quinazoline-2,5-diamine]
116 | Cc1c(-c2cc3nc(Nc4ccccc4OC(F)(F)F)ncc3c(N)c2F)cnc2c1NCCO2 [Compound 2-8, 6-fluoro-7-(8-methyl-2,3-dihydro-1H-pyrido[2,3-b][1,4]oxazin-7-yl)-N~2~- [2-(trifluoromethoxy)phenyl] quinazoline-2,5-diamine]
47 | Cc1c(-c2c(F)c(N)c3cnc(Nc4ccc(N5CCOC5=O)cc4)nc3c2Cl)cnc2c1NCCO2 [Compound 2-159]
